US7186743B2, “Substituted pyrazolyl compounds for the treatment of inflammation” (Pharmacia Corporation, priority 2001, dated 2007)
pIC50: −log10 of the molar value. Structures can show the parent of a compound that is named as a salt. Where two headings read alike, the source gives them in different places.

Biological target: T1, IKK2 (Homo sapiens, UniProt O14920)
T1 construct: made in house; host or cells: insect cells (baculovirus, pFastBac; SF9)
T1 sequence (O14920 1-756): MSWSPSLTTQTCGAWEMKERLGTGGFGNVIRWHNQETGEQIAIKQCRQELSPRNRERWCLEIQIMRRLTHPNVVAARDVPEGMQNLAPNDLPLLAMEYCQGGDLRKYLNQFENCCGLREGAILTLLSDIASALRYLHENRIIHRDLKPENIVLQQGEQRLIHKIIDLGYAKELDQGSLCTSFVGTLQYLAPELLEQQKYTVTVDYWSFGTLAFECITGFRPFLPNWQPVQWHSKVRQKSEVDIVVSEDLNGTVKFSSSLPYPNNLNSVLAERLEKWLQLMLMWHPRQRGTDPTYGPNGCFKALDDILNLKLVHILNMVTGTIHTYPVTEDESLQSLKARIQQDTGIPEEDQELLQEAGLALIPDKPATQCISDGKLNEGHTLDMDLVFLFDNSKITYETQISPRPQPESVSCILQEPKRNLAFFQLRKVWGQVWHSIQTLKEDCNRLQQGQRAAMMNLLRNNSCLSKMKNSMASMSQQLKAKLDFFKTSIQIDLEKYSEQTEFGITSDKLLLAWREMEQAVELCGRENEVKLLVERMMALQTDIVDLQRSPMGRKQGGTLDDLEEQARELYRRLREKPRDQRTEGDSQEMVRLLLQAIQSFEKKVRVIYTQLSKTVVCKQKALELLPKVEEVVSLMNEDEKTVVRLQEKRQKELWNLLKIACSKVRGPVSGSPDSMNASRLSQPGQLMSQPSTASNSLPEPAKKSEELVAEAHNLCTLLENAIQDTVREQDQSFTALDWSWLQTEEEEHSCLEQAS
Experiment: IKKβ Resin Enzyme Assay (IKK2 resin)
Format: biochemical
Source text: cDNAs of human IKK1 and IKK2 were amplified by reverse transcriptase-polymerase chain reaction from human placental RNA (Clonetech). hIKK1 was subcloned into pFastBac HTa (Life Technologies) and expressed as N-terminal His6-tagged fusion protein. The hIKK2 cDNA was amplified using a reverse oligonucleotide primer which incorporated the peptide sequence for a FLAG-epitope tag at the C-terminus of the IKK2 coding region ([…]). The hIKK2:FLAG cDNA was subcloned into the baculovirus vector pFastBac. The rhIKK2 ([…]) mutant was constructed in the same vector used for wild type rhIKK2 using a QuikChange™ mutagenesis kit (Stratagene). Viral stocks of each construct were used to infect insect cells grown in 40 L suspension culture. […] Cell lysates were stored at −80° C. until purification of the recombinant proteins was undertaken as described below.
A 10-liter culture of baculovirus-expressing IKK2 tagged with FLAG peptide was centrifuged and the cell pellet (MOI=0.1 and I=72 hrs) was re-suspended in buffer A. These cells were microfluidized, and centrifuged at 100,000×g for 45 min. Supernatant was passed over a G-25 column equilibrated with Buffer A. Protein peak was collected and incubated with anti-FLAG affinity resin on a rotator overnight in buffer B. The resin was washed in batch with 10–15 bed volumes of buffer C. Washed resin was poured into a column and rhIKK2 homodimer was eluted using 5 bed volumes of buffer B containing FLAG peptide. 5 mM DTT, 0.1% NP-40 and BSA (concentrated to 0.1% in final amount) was added to the eluted enzyme before concentrating in using an Amicon membrane with a molecular weight cut-off of 30 kDa. Enzyme was aliquoted and stored at −80° C.
IKKβ kinase activity was measured using a biotinylated IκBα peptide ([…]32-Gly-Leu-Asp-Ser36-Met-Lys-Asp-Glu-Glu) (American Peptide Co.). […] ATP (Amersham) (about 1×10^5 cpm), 1 μM ATP (Sigma), 1 mM DTT (Sigma), 2 mM MgCl2 (Sigma), 2 mM MnCl2 (Sigma), 10 mM NaF (Sigma), 25 mM Hepes (Sigma) buffer, pH 7.6 and 20 μl enzyme solution and 10 ul inhibitor in a final volume of 50 μl. After incubation at 25° C. for 30 min, 150 μl resin (Dowex anion-exchange resin AG1X8 200–400 mesh) in 900 mM formate, pH 3.0 was added to each well to stop the reaction. Resin was allowed to settle for one hour and 50 ul of supernatant was removed to a Micolite-2 flat bottom plate (Dynex). 150 μl of scintillation fluid (Microscint 40) (Packard) was added to each well. Incorporation of [γ-^33P] ATP was measured using a Top-Count NXT (Packard).

[1] = Table 3, read-out: IKK Resin IC50
[2] = Table 6, read-out: IKK2 Resin IC 50
[3] = Table 2, read-out: IKK Resin IC50
[4] = Table for Examples 381-385 (headed TABLE 14), read-out: IKK2 Resin IC50
[5] = Table 4, read-out: IKK2 Resin IC50

SMILES: NC(=O)c1nn(-c2ccc(O)cc2)c2c1CCc1ccc(NC(=O)c3cccnc3Cl)cc1-2 [Example 263, 8-{[(2-chloropyridin-3-yl)carbonyl]amino}-1-(4-hydroxyphenyl)-4,5-dihydro-1H-benzo[g]indazole-3-carboxamide]
- pIC50 (Table 8, read-out: IKK2 Resin IC50): ≥ 6.00

SMILES: CS(=O)(=O)c1ccc(-n2nc(C(N)=O)c3c2-c2cc(NC(=O)c4cc(Br)ccc4Cl)ccc2CC3)cc1 [Example 136, 8-[(5-bromo-2-chlorobenzoyl)amino]-1-[4-(methylsulfonyl)phenyl]-4,5-dihydro-1H-benzo[g]indazole-3-carboxamide]
- pIC50 [1]: ≥ 6.00

SMILES: COc1cc(C(=O)Nc2ccc3c(c2)-c2c(c(C(N)=O)nn2-c2ccc(S(C)(=O)=O)cc2)CC3)c([N+](=O)[O-])cc1OC [Example 150, 8-[(4,5-dimethoxy-2-nitrobenzoyl)amino]-1-[4-(methylsulfonyl)phenyl]-4,5-dihydro-1H-benzo[g]indazole-3-carboxamide]
- pIC50 [1]: ≥ 6.00

SMILES: CS(=O)(=O)c1ccc(C(=O)Nc2ccc3c(c2)-c2c(c(C(N)=O)nn2-c2ccc(F)cc2)CC3)c(Cl)c1 [Example 226, 8-{[2-chloro-4-(methylsulfonyl)benzoyl]amino}-1-(4-fluorophenyl)-4,5-dihydro-1H-benzo[g]indazole-3-carboxamide]
- pIC50 [2]: ≥ 6.00

SMILES: NC(=O)c1nn(-c2cccc(O)c2)c2c1CCc1ccc(NC(=O)c3cc4c(cc3Cl)OCO4)cc1-2 [Example 277, 8-{[(6-chloro-1,3-benzodioxol-5-yl)carbonyl]amino}-1-(3-hydroxyphenyl)-4,5-dihydro-1H-benzo[g]indazole-3-carboxamide]
- pIC50 (Table 10, read-out: IKK2 Resin IC50): ≥ 6.00

SMILES: NC(=O)c1nn(-c2ccc(C#CCO)cc2)c2c1CCc1ccc(NC(=O)c3cccnc3Cl)cc1-2 [Example 386, 8-{[(2-chloropyridin-3-yl)carbonyl]amino}-1-[4-(3-hydroxyprop-1-ynyl)phenyl]-4,5-dihydro-1H-benzo[g]indazole-3-carboxamide]
- pIC50 (Table 17, read-out: IKK2 Resin IC50): ≥ 6.00

SMILES: CS(=O)(=O)c1ccc(-n2nc(C(N)=O)c3c2-c2cc(NC(=O)c4ccc(C(F)(F)F)cc4[N+](=O)[O-])ccc2CC3)cc1 [Example 152, 1-[4-(methylsulfonyl)phenyl]-8-{[2-nitro-4-(trifluoromethyl)benzoyl]amino}-4,5-dihydro-1H-benzo[g]indazole-3-carboxamide]
- pIC50 [1]: ≥ 6.00

SMILES: CS(=O)(=O)c1ccc(-n2nc(C(N)=O)c3c2-c2cc(NC(=O)c4cc(Cl)ccc4[N+](=O)[O-])ccc2CC3)cc1 [Example 139, 8-[(5-chloro-2-nitrobenzoyl)amino]-1-[4-(methylsulfonyl)phenyl]-4,5-dihydro-1H-benzo[g]indazole-3-carboxamide]
- pIC50 [1]: ≥ 6.00

SMILES: COc1ccc(C(=O)Nc2ccc3c(c2)-c2c(c(C(N)=O)nn2-c2ccc(F)cc2)CC3)c(Cl)c1 [Example 233, 8-[(2-chloro-4-methoxybenzoyl)amino]-1-(4-fluorophenyl)-4,5-dihydro-1H-benzo[g]indazole-3-carboxamide]
- pIC50 [2]: ≥ 6.00

SMILES: NC(=O)c1nn(-c2ccc(OCCN3CCOCC3)cc2)c2c1CCc1ccc(NC(=O)c3ccccc3Cl)cc1-2 [Example 264, 8-[(2-chlorobenzoyl)amino]-1-[4-(2-morpholin-4-ylethoxy)phenyl]-4,5-dihydro-1H-benzo[g]indazole-3-carboxamide]
- pIC50 (Table 9, read-out: IKK2 Resin IC50): ≥ 6.00

SMILES: Cc1ccc(C(=O)Nc2ccc3c(c2)-c2c(c(C(N)=O)nn2-c2ccc(F)cc2)CC3)c(Cl)n1 [Example 227, 8-{[(2-chloro-6-methylpyridin-3-yl)carbonyl]amino}-1-(4-fluorophenyl)-4,5-dihydro-1H-benzo[g]indazole-3-carboxamide]
- pIC50 [2]: ≥ 6.00

SMILES: CN(C)CC(=O)Nc1ccc(Cl)c(C(=O)Nc2ccc3c(c2)-c2c(c(C(N)=O)nn2-c2ccc(S(C)(=O)=O)cc2)CC3)c1 [Example 119, 8-({2-chloro-5-[(N,N-dimethylglycyl)amino]benzoyl}amino)-1-[4-(methylsulfonyl)phenyl]-4,5-dihydro-1H-benzo[g]indazole-3-carboxamidehydrochloride]
- pIC50 [3]: ≥ 6.00

SMILES: NC(=O)c1nn(-c2ccc(N)nc2)c2c1CCc1ccc(NC(=O)c3ccncc3Cl)cc1-2 [Example 381, 1-(6-aminopyridin-3-yl)-8-[(3-chloroisonicotinoyl)amino]-4,5-dihydro-1H-benzo[g]indazole-3-carboxamide]
- pIC50 [4]: ≥ 6.00

SMILES: CS(=O)(=O)c1ccc(-n2nc(C(N)=O)c3c2-c2cc(NC(=O)c4cc([N+](=O)[O-])ccc4Cl)ccc2CC3)cc1 [Example 111, 8-[(2-chloro-5-nitrobenzoyl)amino]-1-[4-(methylsulfonyl)phenyl]-4,5-dihydro-1H-benzo[g]indazole-3-carboxamide]
- pIC50 [3]: ≥ 6.00

SMILES: CS(=O)(=O)c1ccc(-n2nc(C(N)=O)c3c2-c2cc(NC(=O)c4cc(Cl)ccc4Cl)ccc2CC3)cc1 [Example 108, 8-[(2,5-dichlorobenzoyl)amino]-1-[4-(methylsulfonyl)phenyl]-4,5-dihydro-1H-benzo[g]indazole-3-carboxamide]
- pIC50 [3]: ≥ 6.00

SMILES: NC(=O)c1nn(-c2ccsc2)c2c1CCc1ccc(NC(=O)c3ccncc3Cl)cc1-2 [Example 383, 8-[(3-chloroisonicotinoyl)amino]-1-thien-3-yl-4,5-dihydro-1H-benzo[g]indazole-3-carboxamide]
- pIC50 [4]: ≥ 6.00

SMILES: COc1cc(Cl)c(C(=O)Nc2ccc3c(c2)-c2c(c(C(N)=O)nn2-c2ccc(F)cc2)CC3)cc1OC [Example 239, 8-[(2-chloro-4,5-dimethoxybenzoyl)amino]-1-(4-fluorophenyl)-4,5-dihydro-1H-benzo[g]indazole-3-carboxamide]
- pIC50 [2]: ≥ 6.00

SMILES: NC(=O)c1nn(-c2ccc3c(c2)OCO3)c2c1CCc1ccc(NC(=O)c3ccccc3Br)cc1-2 [Example 177, 1-(1,3-benzodioxol-5-yl)-8-[(2-bromobenzoyl)amino]-4,5-dihydro-1H-benzo[g]indazole-3-carboxamide]
- pIC50 [5]: ≥ 6.00

SMILES: NC(=O)c1nn(-c2ccccc2F)c2c1CCc1ccc(NC(=O)c3ccccc3Cl)cc1-2 [Example 341, 8-[(2-chlorobenzoyl)amino]-1-(2-fluorophenyl)-4,5-dihydro-1H-benzo[g]indazole-3-carboxamide]
- pIC50 (Table 14, read-out: IKK2 Resin IC50): ≥ 6.00

SMILES: NC(=O)c1nn(-c2ccc3c(c2)OCO3)c2c1CCc1ccc(NC(=O)c3ccc(O)nc3)cc1-2 [Example 186, 1-(1,3-benzodioxol-5-yl)-8-{[(6-hydroxypyridin-3-yl)carbonyl]amino}-4,5-dihydro-1H-benzo[g]indazole-3-carboxamide]
- pIC50 [5]: ≥ 6.00

SMILES: COc1cc(Cl)c(C(=O)Nc2ccc3c(c2)-c2c(c(C(N)=O)nn2-c2ccc(S(C)(=O)=O)cc2)CC3)cc1OC [Example 131, 8-[(2-chloro-4,5-dimethoxybenzoyl)amino]-1-[4-(methylsulfonyl)phenyl]-4,5-dihydro-1H-benzo[g]indazole-3-carboxamide]
- pIC50 [1]: ≥ 6.00
